Here are results for 16 molecules from PubChem BioAssay AID248 (DTP/NCI, 2004).

In this assay the test system is L1210 leukemia ip in BDF1 mice, survival T/C. The experiment in a line: NCI In Vivo Anticancer Drug Screen. Data for tumor model L1210 Leukemia (intraperitoneal) in B6D2F1 (BDF1) mice. To be noted: endpoint: mean survival time, higher = longer survival. An outline of the steps:
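In this screen, tumor-bearing mice given compound are compared to those given vehicle, and their survival values are reported as a treated-to-control quotient.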

Where [1] appears, read: dose: 75.0 mg/kg/injection, schedule: Q01DX001 (ip), vehicle: saline.
The mark [2] stands for this setting: dose: 100.0 mg/kg/injection, schedule: Q01DX009 (ip), vehicle: saline with Tween-80.
Setting [3] is: dose: 200.0 mg/kg/injection, schedule: Q01DX009 (ip), vehicle: saline with Tween-80.
[4] abbreviates: dose: 100.0 mg/kg/injection, schedule: Q04DX003 (ip), vehicle: Klucel (hydroxypropylcellulose) (HPC).
[5] abbreviates: dose: 200.0 mg/kg/injection, schedule: Q04DX003 (ip), vehicle: Klucel (hydroxypropylcellulose) (HPC).
Setting [6] is: dose: 100.0 mg/kg/injection, schedule: Q01DX001 (ip), vehicle: saline.
Where [7] appears, read: dose: 200.0 mg/kg/injection, schedule: Q01DX001 (ip), vehicle: saline.
The mark [8] stands for this setting: dose: 400.0 mg/kg/injection, schedule: Q01DX001 (ip), vehicle: saline.

Values joined by “and” are separate entries in the source; they are usually repeats but may differ in a detail not shown here. Identical values can stand only once. Inconclusive results and toxic doses are left out.

Take `CCCC(C)C1(CC)C(=O)NC(=O)NC1=O` (stereo not given): the T/C (dose: 20.0 mg/kg/injection, schedule: Q01DX001 (ip), vehicle: saline) was 97 % of control; the T/C (dose: 20.0 mg/kg/injection, schedule: Q04DX003 (ip), vehicle: saline) was 93 % of control; the T/C (dose: 40.0 mg/kg/injection, schedule: Q01DX001 (ip), vehicle: saline) was 103 % of control; the T/C (dose: 40.0 mg/kg/injection, schedule: Q04DX003 (ip), vehicle: saline) is 98 % of control; the T/C under setting [1] was 107 % of control; the T/C (dose: 80.0 mg/kg/injection, schedule: Q01DX001 (ip), vehicle: saline) was 108 % of control. In addition, the T/C by setting is: (dose: 80.0 mg/kg/injection, schedule: Q04DX003 (ip), vehicle: saline) 97 % of control; (dose: 160.0 mg/kg/injection, schedule: Q01DX001 (ip), vehicle: saline) 108 % of control.
For `CCOC(=O)COc1ccccc1Cl`, the T/C (dose: 1.56 mg/kg/injection, schedule: Q04DX002 (ip), vehicle: Klucel (hydroxypropylcellulose) (HPC)) is 115 % of control; the T/C (dose: 3.13 mg/kg/injection, schedule: Q04DX002 (ip), vehicle: Klucel (hydroxypropylcellulose) (HPC)) was 105 % of control; the T/C (dose: 6.25 mg/kg/injection, schedule: Q04DX002 (ip), vehicle: Klucel (hydroxypropylcellulose) (HPC)) was 108 % of control; the T/C (dose: 12.5 mg/kg/injection, schedule: Q04DX002 (ip), vehicle: Klucel (hydroxypropylcellulose) (HPC)) was 106 % of control; the T/C (dose: 25.0 mg/kg/injection, schedule: Q04DX002 (ip), vehicle: Klucel (hydroxypropylcellulose) (HPC)) is 95 % of control; the T/C (dose: 50.0 mg/kg/injection, schedule: Q04DX002 (ip), vehicle: Klucel (hydroxypropylcellulose) (HPC)) is 97 % of control.
As to `COc1ccc(C(O)c2nnc(C(O)c3ccc(OC)cc3)nn2)cc1` (stereo not given), the T/C was 96 % of control under setting [2]; 103 % of control (dose: 100.0 mg/kg/injection, schedule: Q04DX002 (ip), vehicle: Klucel (hydroxypropylcellulose) (HPC)); 96 % of control under setting [3]; 90 % of control (dose: 200.0 mg/kg/injection, schedule: Q04DX002 (ip), vehicle: Klucel (hydroxypropylcellulose) (HPC)); 86 % of control (dose: 400.0 mg/kg/injection, schedule: Q01DX009 (ip), vehicle: saline with Tween-80); 100 % of control (dose: 400.0 mg/kg/injection, schedule: Q04DX002 (ip), vehicle: Klucel (hydroxypropylcellulose) (HPC)).
Turning to `O=C(Nc1ccc(C(=O)O)cc1)Nc1cccc(Cl)c1`, the T/C is, setting by setting: (dose: 25.0 mg/kg/injection, schedule: Q04DX002 (ip), vehicle: saline) 92 % of control; (dose: 50.0 mg/kg/injection, schedule: Q04DX002 (ip), vehicle: saline) 95 % of control; (dose: 100.0 mg/kg/injection, schedule: Q04DX002 (ip), vehicle: saline) 100 % of control and 89 % of control.
With `O=C(c1cccc(C(=O)N(c2ccccc2)C2CCCCC2)c1)N(c1ccccc1)C1CCCCC1`, the T/C is, setting by setting: (dose: 100.0 mg/kg/injection, schedule: Q01DX009 (ip), vehicle: Klucel (hydroxypropylcellulose) (HPC)) 100 % of control; (dose: 200.0 mg/kg/injection, schedule: Q01DX009 (ip), vehicle: Klucel (hydroxypropylcellulose) (HPC)) 94 % of control; (dose: 400.0 mg/kg/injection, schedule: Q01DX009 (ip), vehicle: Klucel (hydroxypropylcellulose) (HPC)) 98 % of control.
`Nc1nc(N)c(-c2ccc(Cl)c(Cl)c2)c(C[P+](c2ccccc2)(c2ccccc2)c2ccccc2)n1`: under setting [1], the T/C is 97 % of control.
Regarding `COc1ccc(C(=O)c2ccccc2)c(O)c1`, the T/C is 101 % of control under setting [4]; 97 % of control under setting [5]; 90 % of control (dose: 400.0 mg/kg/injection, schedule: Q04DX003 (ip), vehicle: Klucel (hydroxypropylcellulose) (HPC)).
For the molecule `O=C(c1ccccc1)C(c1ccccc1)C(O)(C(F)(F)F)C(F)(F)F` (stereo not given), the T/C reads like this: under setting [2], 103 % of control; under setting [3], 97 % of control.
Take `COc1cc(/C=C/[N+](=O)[O-])c([N+](=O)[O-])cc1OC`: the T/C is 90 % of control (dose: 50.0 mg/kg/injection, schedule: Q01DX009 (ip), vehicle: saline with Tween-80); 106 % of control under setting [6]; 87 % of control under setting [2]; 101 % of control under setting [7].
As for `CCOC(=S)Nc1ccc(S(=O)(=O)c2ccc(NC(=S)OCC)cc2)cc1`, the T/C by setting is: under setting [6], 96 % of control; under setting [7], 92 % of control; under setting [8], 98 % of control.
With `O=C(NC(CS(=O)(=O)O)C(=O)O)OCc1ccccc1` (stereo not given), the T/C was 93 % of control (dose: 100.0 mg/kg/injection, schedule: Q01DX001 (ip), vehicle: Klucel (hydroxypropylcellulose) (HPC)); 93 % of control under setting [4]; 97 % of control (dose: 200.0 mg/kg/injection, schedule: Q01DX001 (ip), vehicle: Klucel (hydroxypropylcellulose) (HPC)); 95 % of control under setting [5]; 91 % of control (dose: 400.0 mg/kg/injection, schedule: Q01DX001 (ip), vehicle: Klucel (hydroxypropylcellulose) (HPC)).
As for `NC1C(=O)NC(=O)NC1=S` (stereo not given), the T/C reads like this: (dose: 29.0 mg/kg/injection, schedule: Q01DX Z (ip), vehicle: methylcellulose (MC)) 100 % of control; (dose: 45.0 mg/kg/injection, schedule: Q01DX Z (ip), vehicle: methylcellulose (MC)) 107 % of control.
For `Cc1ccc(S(=O)(=O)OC2C(C)C3CS(=O)(=O)C32)cc1` (stereo not given), the T/C reads like this: (dose: 100.0 mg/kg/injection, schedule: Q04DX002 (ip), vehicle: DMSO) 119 % of control; (dose: 200.0 mg/kg/injection, schedule: Q04DX002 (ip), vehicle: DMSO) 105 % of control; (dose: 400.0 mg/kg/injection, schedule: Q04DX002 (ip), vehicle: DMSO) 102 % of control.
Regarding `CC(=O)OCC1OC(n2cc(C(F)(F)F)c(=O)[nH]c2=O)CC1OC(C)=O` (stereo not given), the T/C is, setting by setting: (dose: 20.0 mg/kg/injection, schedule: Q01DX009 (oral), vehicle: saline) 116 % of control; (dose: 20.0 mg/kg/injection, schedule: Q01DX011 (ip), vehicle: saline) 116 % of control; (dose: 40.0 mg/kg/injection, schedule: Q01DX009 (oral), vehicle: saline) 116 % of control; (dose: 40.0 mg/kg/injection, schedule: Q01DX011 (ip), vehicle: saline) 118 % of control; (dose: 45.0 mg/kg/injection, schedule: Q01DX Z (oral), vehicle: saline) 105 % of control; (dose: 65.0 mg/kg/injection, schedule: Q01DX Z (oral), vehicle: saline) 87 % of control. The T/C is, setting by setting: (dose: 80.0 mg/kg/injection, schedule: Q01DX009 (oral), vehicle: saline) 118 % of control; (dose: 80.0 mg/kg/injection, schedule: Q01DX011 (ip), vehicle: saline) 122 % of control; (dose: 100.0 mg/kg/injection, schedule: Q01DX Z (oral), vehicle: saline) 109 % of control; (dose: 150.0 mg/kg/injection, schedule: Q01DX011 (oral), vehicle: saline) 168 % of control; (dose: 160.0 mg/kg/injection, schedule: Q01DX009 (oral), vehicle: saline) 155 % of control; (dose: 160.0 mg/kg/injection, schedule: Q01DX011 (ip), vehicle: saline) 159 % of control. The T/C reads like this: (dose: 300.0 mg/kg/injection, schedule: Q01DX011 (oral), vehicle: saline) 153 % of control; (dose: 480.0 mg/kg/injection, schedule: Q01DX Z (ip), vehicle: saline) 115 % of control.
Take `CC1(C)CC(O)CC(O)C1` (stereo not given): the T/C was 104 % of control (dose: 50.0 mg/kg/injection, schedule: Q01DX001 (ip), vehicle: carboxymethylcellulose (CMC)); 98 % of control (dose: 50.0 mg/kg/injection, schedule: Q01DX001 (ip), vehicle: saline); 101 % of control (dose: 100.0 mg/kg/injection, schedule: Q01DX001 (ip), vehicle: carboxymethylcellulose (CMC)); 120 % of control under setting [6]; 106 % of control (dose: 200.0 mg/kg/injection, schedule: Q01DX001 (ip), vehicle: carboxymethylcellulose (CMC)); 104 % of control under setting [7]. In addition, the T/C reads like this: (dose: 400.0 mg/kg/injection, schedule: Q01DX001 (ip), vehicle: carboxymethylcellulose (CMC)) 98 % of control; under setting [8], 95 % of control.
On to `NC(C[Se][Se]CC(N)C(=O)O)C(=O)O` (stereo not given), for which the T/C is 103 % of control (dose: 1.56 mg/kg/injection, schedule: Q04DX002 (ip), vehicle: saline); 103 % of control (dose: 3.12 mg/kg/injection, schedule: Q04DX002 (ip), vehicle: saline); 103 % of control (dose: 6.25 mg/kg/injection, schedule: Q04DX002 (ip), vehicle: saline); 88 % of control (dose: 12.5 mg/kg/injection, schedule: Q04DX002 (ip), vehicle: saline).
